One series deals with T1, OATP1B1 (Homo sapiens, UniProt Q9Y6L6).
T1 sequence (Q9Y6L6 1-691): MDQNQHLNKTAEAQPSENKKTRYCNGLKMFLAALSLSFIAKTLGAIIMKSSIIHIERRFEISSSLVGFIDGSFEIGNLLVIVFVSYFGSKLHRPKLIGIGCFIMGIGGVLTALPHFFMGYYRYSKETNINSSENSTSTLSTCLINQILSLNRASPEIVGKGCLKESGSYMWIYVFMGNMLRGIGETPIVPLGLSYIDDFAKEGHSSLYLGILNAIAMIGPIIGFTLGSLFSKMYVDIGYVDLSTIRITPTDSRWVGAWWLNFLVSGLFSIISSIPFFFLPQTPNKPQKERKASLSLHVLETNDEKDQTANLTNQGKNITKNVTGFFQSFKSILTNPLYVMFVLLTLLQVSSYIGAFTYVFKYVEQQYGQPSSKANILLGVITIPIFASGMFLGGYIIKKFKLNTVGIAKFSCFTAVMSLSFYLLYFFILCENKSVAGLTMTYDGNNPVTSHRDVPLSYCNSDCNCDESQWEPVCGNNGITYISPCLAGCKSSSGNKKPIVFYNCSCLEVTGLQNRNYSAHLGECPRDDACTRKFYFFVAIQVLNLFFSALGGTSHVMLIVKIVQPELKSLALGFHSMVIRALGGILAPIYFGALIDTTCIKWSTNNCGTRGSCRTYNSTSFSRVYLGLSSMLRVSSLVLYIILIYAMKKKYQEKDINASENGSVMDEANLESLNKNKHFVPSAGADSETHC
As to the kind of experiment: in vitro selectivity profile: OATP1B1 transporter activity. In kind it is cell-based. As to the method:
(§1) The secondary pharmacological profile (i.e., sGC-independent activity) of GSK2181236A was assessed in cell-based functional assays by characterizing the interaction between GSK2181236A and 38 distinct human enzymes, ion channels, transporters, and G-protein-coupled receptors including 5-HT (5-HT1B/2A/2C/3), 5-HT transporter (SERT), adenosine (A2a), adrenergic (α1B/2C, β2), Aurora B kinase, cycoloxygenase-2 (COX-2), CaV1.2, cytochrome P450 (CYP2C19, 2D6, and 3A4), dopamine (D2), dopamine transporter (DAT), gamma-aminobutyric acid (GABAA), glycogen synthase kinase-3 (GSK3β) histamine (H1), KV1.5, KV7.1, KV11.1, lymphocyte-specific protein tyrosine kinase (LCK), L-monoamine oxidase (MAO-B) muscarinic (M1/2), NaV1.5, nicotinic (α1 nAChR), noradrenaline transporter (NET), opioid (κ, μ), organic anion transporting polypeptide C (OATP1B1), phosphodiesterase 5 (PDE5), phosphatidylinositol 3-kinase (PI3Kγ), pregnane X receptor (PXR), tachykinin (NK1), and vasopressin (V1a).

For another series, the target named is T2, rat sGC (Rattus norvegicus, UniProt P20595).
T2 sequence (P20595 1-619): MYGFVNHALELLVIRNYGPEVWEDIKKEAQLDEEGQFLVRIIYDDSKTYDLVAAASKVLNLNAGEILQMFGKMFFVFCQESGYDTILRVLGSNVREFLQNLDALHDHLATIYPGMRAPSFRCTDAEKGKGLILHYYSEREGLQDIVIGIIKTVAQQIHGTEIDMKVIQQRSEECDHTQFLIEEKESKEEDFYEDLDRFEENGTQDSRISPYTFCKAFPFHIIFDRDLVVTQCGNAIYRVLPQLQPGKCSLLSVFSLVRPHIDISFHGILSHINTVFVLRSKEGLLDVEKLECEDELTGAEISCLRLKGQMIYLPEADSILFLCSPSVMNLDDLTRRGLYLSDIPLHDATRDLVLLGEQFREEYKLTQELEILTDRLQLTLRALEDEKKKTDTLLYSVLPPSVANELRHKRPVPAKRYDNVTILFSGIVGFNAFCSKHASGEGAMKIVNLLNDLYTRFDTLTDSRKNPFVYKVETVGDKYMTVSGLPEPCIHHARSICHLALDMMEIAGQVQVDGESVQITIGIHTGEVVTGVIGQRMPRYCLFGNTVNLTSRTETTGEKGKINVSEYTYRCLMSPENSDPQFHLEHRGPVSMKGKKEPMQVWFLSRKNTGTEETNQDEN
T2 sequence (P19686 1-690 partner): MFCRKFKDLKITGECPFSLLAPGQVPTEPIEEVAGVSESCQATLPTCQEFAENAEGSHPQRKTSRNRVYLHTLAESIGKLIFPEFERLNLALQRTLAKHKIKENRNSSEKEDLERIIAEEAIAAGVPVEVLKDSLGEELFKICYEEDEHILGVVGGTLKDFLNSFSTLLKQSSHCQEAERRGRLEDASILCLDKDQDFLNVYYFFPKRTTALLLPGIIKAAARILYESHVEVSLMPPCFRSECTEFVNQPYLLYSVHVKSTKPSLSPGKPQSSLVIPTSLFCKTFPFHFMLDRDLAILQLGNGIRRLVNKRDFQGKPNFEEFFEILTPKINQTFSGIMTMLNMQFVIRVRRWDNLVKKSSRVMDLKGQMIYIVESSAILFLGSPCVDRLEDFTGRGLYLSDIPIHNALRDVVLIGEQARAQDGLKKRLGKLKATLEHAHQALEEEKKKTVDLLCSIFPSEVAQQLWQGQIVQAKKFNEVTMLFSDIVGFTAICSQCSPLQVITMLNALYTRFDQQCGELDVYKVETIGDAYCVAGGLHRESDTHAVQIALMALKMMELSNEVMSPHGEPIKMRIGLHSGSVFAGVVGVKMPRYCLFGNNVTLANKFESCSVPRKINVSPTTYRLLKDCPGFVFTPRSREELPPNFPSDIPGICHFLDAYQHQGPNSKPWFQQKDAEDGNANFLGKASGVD
As to the kind of experiment: primary cell-free rat sGC enzyme assay (cGMP formation). The series is classed as biochemical. To be noted: data not shown.

The test system of series [1] is all other proteins tested (human enzymes, ion channels, transporters, and G-protein-coupled receptors). In words: in vitro selectivity profile: cell-based functional assays, other non-sGC proteins. On the procedure:
as §1

Bounds are passed on as bounds.

From paper PMC3389674, “Comparison of Soluble Guanylate Cyclase Stimulators and Activators in Models of Cardiovascular Disease Associated with Oxidative Stress” (Frontiers in Pharmacology, 2012) come the findings set out here.

The term IC50 denotes the concentration needed to halve the response being measured. In general, EC50 refers to the concentration giving half of the maximal effect. Higher therefore signals lower potency in that assay. In the case of `Cc1cc(-c2ccc(OC(F)(F)F)cc2)ccc1COc1ccccc1-c1cccc(-n2ncc(C(=O)O)c2C(F)(F)F)n1` [GSK2181236A, 1-(6-{2-[({3-methyl-4′-[(trifluoromethyl)oxy]-4-biphenylyl}methyl)oxy]phenyl}-2-pyridinyl)-5-(trifluoromethyl)-1H-pyrazole-4-carboxylic acid], at OATP1B1 (human, cell-based functional assay (human OATP1B1 transporter), vs P-VASP EC50 12.7 nM, read-out: selectivity for sGC over OATP1B1), the selectivity ratio was found to be 23. On OATP1B1 (read-out: IC50, inhibition of transporter activity), the IC50 came to 300 nM. A half-maximal effect at rat sGC (EC50) was put at 27 nM. The “Interactions (EC50s or IC50s) at all other proteins tested” value in series [1] is at least 2500 nM. In series [1] (cell-based assays), the “interaction with sGC more potent than any other non-sGC protein tested” value is “at least 23 fold”. Further, the “selectivity for sGC over all other tested proteins” value in series [1] (vs P-VASP EC50 12.7 nM) is listed as at least 197 fold.
